The record followed here is patent US20040086901A1, “Database for analyzing gene function and method of analyzing gene function by dspa” (priority 2000, published 2004).

Structures are written as SMILES.

Common to all, as to assay type: cell-based, mouse
Experiment [1] relates to NIH3T3 cells overexpressing Ki-ras. The experiment can be described thus: MTT cell viability, Ki-ras overexpressing cells vs parental line. The following applies: Ki-ras high-expressing cells / parental cell line, 3 to 4 days. On the procedure: (§1) With regard to the function-known genes, the genes shown in the left column of Table 2 were used. With regard to the drugs, those shown in Table 1 were dissolved in DMSO to an extent of 100-fold of the maximum concentration for the search of the drugs and used. With regard to the cells, incubated NIH3T3 or ras-NIH3T3 cells were used.
(§2) Full-length cDNA of each function-known genes was incorporated into an expression vector (pRc-CMV, etc.) and transfected into NIH3T3 cells by a common method. Transformed cells were isolated using the resistance to G-418 as an index and the expression of the transfected gene in each cell was investigated by Western blotting method to select a highly expressing line.
(§3) Cell viabilities were measured according to the following procedures.
(§4) 1) From the 2nd to the 11th rows of a 96-well plate were filled with DMEM (50 μl). The 12th row was filled with 100 μl of DMEM.
(§5) 2) The 1st row was filled with 98 μl of DMEM.
(§6) 3) Drugs (2 μl each) were added into the 1st row.
(§7) 4) Continuous double-dilution was conducted from the 1st to the 9th rows. Fifty μl were taken out from the 9th row and discarded. The plate was preserved in a CO2 incubator.
(§8) 5) Cells (each high-expressing cells and the parental cell line) were detached from the medium using a trypsin solution, suspended in 10% CS-DMEM and transferred to a test tube and cell numbers (cell/ml) were counted.
(§9) 6) The cells were diluted to a concentration of 1×10^5 cells/ml, and 50 μl of the cell suspension were added to the 1st to the 11th rows of the plate followed by gently stirring.
(§10) 7) The plate was transferred to the CO2 incubator and incubated for 3 to 4 days.
(§11) 8) MTT (5 mg/ml in PBS) (10 μl) was added to the 1st to the 12th rows of the plate and incubated in the CO2 incubator at 37° C. for 4 hours.
(§12) 9) A reaction stop solution (0.04N HCl in isopropanol) (150 μl) was added followed by mixing well and being allowed to stand at room temperature for about 2 hours.
(§13) 10) Coloration of formazan which was a metabolite of the MTT dye was measured using a microplate reader. The measurement wavelength was 574 nm and the reference wavelength was 655 nm. The 10th and the 11th rows of the plate were 100% controls and the 12th row was a 0% control.
(§14) As an index for the sensitivity of highly gene-expressing cells and the parental cell line to various drugs, each of the IC40 values thereof was specified and ratios of the IC40 values were calculated. FIG. 2 and FIG. 3 are the examples where ratios of IC40 values were calculated from a curve showing the dependency on the concentration of the chemical versus the viability. After that, logarithmic values of ratios of IC40 values were calculated from each gene.

Experiment [2] deals with NIH3T3 cells overexpressing N-ras. Put plainly: MTT cell viability, N-ras overexpressing cells vs parental line. The following applies: N-ras high-expressing cells / parental cell line, 3 to 4 days. On the procedure: as §1, §2, §3, §4, §5, §6, §7, §8, §9, §10, §11, §12, §13, §14
The test system of experiment [3] is NIH3T3 cells overexpressing Bax. The experiment can be described thus: MTT cell viability, Bax overexpressing cells vs parental line. The following applies: 3 to 4 days. On the procedure:
as §1, §2, §3, §4, §5, §6, §7, §8, §9, §10, §11, §12, §13
(§15) As an index for the sensitivity of highly gene-expressing cells and the parental cell line to various drugs, each of the IC40 values thereof was specified and ratios of the IC40 values were calculated. […] After that, logarithmic values of ratios of IC40 values were calculated from each gene.

Experiment [4] deals with NIH3T3 cells overexpressing TK. Put plainly: MTT cell viability, TK overexpressing cells vs parental line. The following applies: TK high-expressing cells / parental cell line, 3 to 4 days. On the procedure: as §1, §2, §3, §4, §5, §6, §7, §8, §9, §10, §11, §12, §13, §14
Experiment [5] relates to NIH3T3 cells overexpressing calpastatin. Put plainly: MTT cell viability, calpastatin overexpressing cells vs parental line. The following applies: calpastatin high-expressing cells / parental cell line, 3 to 4 days. How it is done: as §1, §2, §3, §4, §5, §6, §7, §8, §9, §10, §11, §12, §13, §14
The test system of experiment [6] is NIH3T3 cells overexpressing cystatin alpha. The experiment can be described thus: MTT cell viability, cystatin alpha overexpressing cells vs parental line. The following applies: cystatin alpha high-expressing cells / parental cell line, 3 to 4 days. How it is done: as §1, §2, §3, §4, §5, §6, §7, §8, §9, §10, §11, §12, §13, §14
The subject of experiment [7] is NIH3T3 cells overexpressing cystatin E. The experiment can be described thus: MTT cell viability, cystatin E overexpressing cells vs parental line. The following applies: cystatin E high-expressing cells / parental cell line, 3 to 4 days. How it is done:
as §1, §2, §3, §4, §5, §6, §7, §8, §9, §10, §11, §12, §13, §14

Experiment [8] has as its system NIH3T3 cells overexpressing caspase-1. Put plainly: MTT cell viability, caspase-1 overexpressing cells vs parental line. The following applies: caspase-1 high-expressing cells / parental cell line, 3 to 4 days. How it is done:
as §1, §2, §3, §4, §5, §6, §7, §8, §9, §10, §11, §12, §13, §15

Experiment [9] relates to NIH3T3 cells overexpressing caspase-2. The experiment can be described thus: MTT cell viability, caspase-2 overexpressing cells vs parental line. The following applies: caspase-2 high-expressing cells / parental cell line, 3 to 4 days. On the procedure: as §1, §2, §3, §4, §5, §6, §7, §8, §9, §10, §11, §12, §13, §14
The test system of experiment [10] is NIH3T3 cells overexpressing PDGF-R-Del. The experiment can be described thus: MTT cell viability, PDGF-R-Del overexpressing cells vs parental line. The following applies: PDGF-R-Del high-expressing cells / parental cell line, 3 to 4 days. On the procedure: as §1, §2, §3, §4, §5, §6, §7, §8, §9, §10, §11, §12, §13, §14
Experiment [11] has as its system NIH3T3 cells overexpressing STAT1. Put plainly: MTT cell viability, STAT1 overexpressing cells vs parental line. The following applies: STAT1 high-expressing cells / parental cell line, 3 to 4 days. On the procedure:
as §1, §2, §3, §4, §5, §6, §7, §8, §9, §10, §11, §12, §13, §15

For experiment [12], the system named is NIH3T3 cells overexpressing CBP8. The experiment can be described thus: MTT cell viability, CBP8 overexpressing cells vs parental line. The following applies: CBP8 high-expressing cells / parental cell line, 3 to 4 days. On the procedure: as §1, §2, §3, §4, §5, §6, §7, §8, §9, §10, §11, §12, §13, §14
For experiment [13], the system named is NIH3T3 cells overexpressing PKCepsilon-KN. The experiment can be described thus: MTT cell viability, PKCepsilon-KN overexpressing cells vs parental line. The following applies: 3 to 4 days. On the procedure: as §1, §2, §3, §4, §5, §6, §7, §8, §9, §10, §11, §12, §13, §15
The subject of experiment [14] is NIH3T3 cells overexpressing p38-DN. The experiment can be described thus: MTT cell viability, p38-DN overexpressing cells vs parental line. The following applies: p38-DN high-expressing cells / parental cell line, 3 to 4 days. On the procedure:
as §1, §2, §3, §4, §5, §6, §7, §8, §9, §10, §11, §12, §13, §15

Experiment [15] deals with NIH3T3 cells overexpressing HNF1. The experiment can be described thus: MTT cell viability, HNF1 overexpressing cells vs parental line. The following applies: HNF1 high-expressing cells / parental cell line, 3 to 4 days. On the procedure:
as §1, §2, §3, §4, §5, §6, §7, §8, §9, §10, §11, §12, §13, §15

Experiment [16] relates to NIH3T3 cells overexpressing HNF3b. Put plainly: MTT cell viability, HNF3b overexpressing cells vs parental line. The following applies: HNF3b high-expressing cells / parental cell line, 3 to 4 days. How it is done:
as §1, §2, §3, §4, §5, §6, §7, §8, §9, §10, §11, §12, §13, §15

For experiment [17], the system named is NIH3T3 cells overexpressing HNF4. Put plainly: MTT cell viability, HNF4 overexpressing cells vs parental line. The following applies: HNF4 high-expressing cells / parental cell line, 3 to 4 days. How it is done:
as §1, §2, §3, §4, §5, §6, §7, §8, §9, §10, §11, §12, §13, §15

The subject of experiment [18] is NIH3T3 cells overexpressing coup. The experiment can be described thus: MTT cell viability, coup overexpressing cells vs parental line. The following applies: coup high-expressing cells / parental cell line, 3 to 4 days. How it is done:
as §1, §2, §3, §4, §5, §6, §7, §8, §9, §10, §11, §12, §13, §14

Experiment [19] has as its system NIH3T3 cells overexpressing p33/ING1. Put plainly: MTT cell viability, p33/ING1 overexpressing cells vs parental line. The following applies: p33/ING1 high-expressing cells / parental cell line, 3 to 4 days. On the procedure: as §1, §2, §3, §4, §5, §6, §7, §8, §9, §10, §11, §12, §13, §14
Where [20] appears, read: Bax (first of two Bax lines) high-expressing cells / parental cell line.
Where [21] appears, read: Bax (second of two Bax lines) high-expressing cells / parental cell line.
Where [22] appears, read: PKCepsilon-KN (first of two lines) high-expressing cells / parental cell line.
The mark [23] stands for this setting: PKCepsilon-KN (second of two lines) high-expressing cells / parental cell line.

For `COc1ccc2c(c1)CC[C@@H]1[C@@H]2CC[C@]2(C)[C@@H](NCCCCCCN3C(=O)C=CC3=O)CC[C@@H]12` [U73122], the “logarithmic value of ratio of IC40 values” was −0.60 in [1]; −0.54 in [2]; 0.00 in experiment [3] (setting [20]); 0.00 in experiment [3] (setting [21]); 0.00 in experiment [4]; −0.313 in [5]. Also, the “logarithmic value of ratio of IC40 values” was 0.04 in [6]; −0.07 in experiment [7]; 0.53 in experiment [8]; −0.02 in [9]; 0.00 in [10]; 0.18 in experiment [11]. Also, the “logarithmic value of ratio of IC40 values” in [12] is recorded as 0.18; in experiment [13] (setting [22]), −0.21; in experiment [13] (setting [23]) it was −0.38; in [14], 0.00; in experiment [15] it was 0.07; in [16], −0.31. Also, the “logarithmic value of ratio of IC40 values” in experiment [17] stood at 0.00; in [18] it was 0.00; in [19] it was 0.28.

With `Nc1nc2nc[nH]c2c(=S)[nH]1` [6-TG, 6-thioguanine], the “logarithmic value of ratio of IC40 values” in experiment [1] is reported as −0.30; in [2] it was −0.22; in experiment [3] (setting [20]) it was 0.36; in [3] (setting [21]) it was −0.05; in experiment [4], −0.17; in experiment [5], −0.25. Also, the “logarithmic value of ratio of IC40 values” in experiment [6] was 0.60; in experiment [7] it was 0.00; in experiment [9], 0.18; in experiment [10] it was 0.51; in experiment [11] it was 0.20; in experiment [12], 0.38. The “logarithmic value of ratio of IC40 values” in experiment [13] (setting [22]) was found to be 0.00; in experiment [13] (setting [23]) it was 0.00; in experiment [15], 0.46; in experiment [16] it was 0.03; in experiment [17], 0.00; in experiment [18], 0.45. Also, the “logarithmic value of ratio of IC40 values” in experiment [19] was 0.46.
